Measured values published in publication PMC5543143, “Structural Basis for the Mechanism of ATP-Dependent Acetone Carboxylation” (Scientific Reports, 2017).
Where two headings read alike, the source gives them in different places.

Legend:
[1] = biological target: T1, native acetone carboxylase (AC) from X. autotrophicus 7C (Xanthobacter versatilis, UniProt Q8RM03+Q8RM04); assay: X-ray crystal structure; type: binding; parameters: gene acxA; native purification from acetone-grown cells, untagged; (alpha beta gamma)2 heterohexamer, 360 kDa; with Acetone carboxylase gamma subunit; conditions: co-crystallised with 10 mM ATP and 10 mM acetone; AMP bound at beta subunit; acetate at Mn site; pH 7.5
T1 sequence (Q8RM04 whole entry, one chain of several): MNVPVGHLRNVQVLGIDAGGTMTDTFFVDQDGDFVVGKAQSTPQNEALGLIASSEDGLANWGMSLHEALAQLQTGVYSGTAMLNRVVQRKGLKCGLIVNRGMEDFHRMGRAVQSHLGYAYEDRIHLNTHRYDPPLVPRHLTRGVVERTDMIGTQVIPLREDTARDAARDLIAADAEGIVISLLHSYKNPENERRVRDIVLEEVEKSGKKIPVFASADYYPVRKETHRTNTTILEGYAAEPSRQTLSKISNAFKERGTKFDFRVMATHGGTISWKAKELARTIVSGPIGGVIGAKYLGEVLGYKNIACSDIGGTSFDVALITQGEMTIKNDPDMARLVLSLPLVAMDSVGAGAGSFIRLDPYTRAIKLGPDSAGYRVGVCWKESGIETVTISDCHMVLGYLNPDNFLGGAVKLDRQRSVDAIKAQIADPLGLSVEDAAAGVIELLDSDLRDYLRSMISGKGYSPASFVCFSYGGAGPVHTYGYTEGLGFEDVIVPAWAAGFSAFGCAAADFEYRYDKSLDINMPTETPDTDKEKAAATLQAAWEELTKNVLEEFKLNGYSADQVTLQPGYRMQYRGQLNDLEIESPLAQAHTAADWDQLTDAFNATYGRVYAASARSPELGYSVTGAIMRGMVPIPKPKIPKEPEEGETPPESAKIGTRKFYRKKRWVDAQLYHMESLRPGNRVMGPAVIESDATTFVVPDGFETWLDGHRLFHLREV
T1 sequence (Q8RM02 2-168, one chain of several, further chain): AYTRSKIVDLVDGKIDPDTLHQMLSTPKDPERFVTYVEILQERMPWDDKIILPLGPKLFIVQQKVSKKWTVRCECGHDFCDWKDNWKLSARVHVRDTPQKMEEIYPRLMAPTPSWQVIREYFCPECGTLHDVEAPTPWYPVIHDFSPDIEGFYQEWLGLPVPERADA

[2] = biological target: T2, acetone carboxylase (AC, XaAC), recombinant (Xanthobacter versatilis, UniProt Q8RM03+Q8RM04); conditions: turnover only
T2 construct: gene acxA
T2 sequence (Q8RM04 whole entry, one chain of several): as the sequence (Q8RM04 whole entry, one chain of several) above
T2 sequence (Q8RM02 2-168, one chain of several, further chain): as the sequence (Q8RM02 2-168, one chain of several, further chain) above

[3] = biological target: T1, native acetone carboxylase (AC) from X. autotrophicus 7C; parameters: gene acxA; conditions: with acetone and HCO3-; turnover only
[4] = biological target: the molecule itself; assay: crystal structure; recombinant AC (αβγ)2, ligand-free and AMP-bound; hanging drop, 25 °C, 14-18% PEG 3350, 0.2 M MgSO4, pH 6.3; nucleotide additives 5 mM; SAD with selenium

Question: `Nc1ncnc2c1ncn2[C@@H]1O[C@H](COP(=O)(O)O)[C@@H](O)[C@H]1O` [AMP] was tested. Which X-ray crystal structure [1] did it give?
Answer: Its X-ray crystal structure is “with AMP bound and no acetone visible in the density”.

Question: Which “coupled spectrophotometric assay with 3-hydroxybutyrate dehydrogenase” value ([2]; with acetone and HCO3-) does the source give for `Nc1ncnc2c1ncn2[C@@H]1O[C@H](COP(=O)(O)OP(=O)(O)OP(=O)(O)O)[C@@H](O)[C@H]1O` [ATP] here?
Answer: Its value is “actively catalyzed the ATP- and HCO3 ^− -dependent carboxylation of acetone to acetoacetate”.

Question: What about the acetone carboxylation activity [3] of the same molecule?
Answer: Its acetone carboxylation activity is “actively catalyzed the ATP- and HCO3 ^− -dependent carboxylation of acetone to acetoacetate”.

Question: `CC(C)=O` [acetone] was tested. Which “coupled spectrophotometric assay with 3-hydroxybutyrate dehydrogenase” value ([2]; ATP and HCO3- dependent carboxylation to acetoacetate) did it give?
Answer: Its value is “actively catalyzed the ATP- and HCO3 ^− -dependent carboxylation of acetone to acetoacetate”.

B1: acetone carboxylase α subunit (AcxB) from Xanthobacter autotrophicus Py2, recombinant (natural protein, UniProt Q8RM03 1-776, looked up)
chain: MNVTVDQSTLAGATRGIVRGGETLKEHRDRLMAATKATGRYAGLKTLELREREPILYNKLFSRLRAGVVDARETAKKIAASPIVEQEGELCFTLYNAAGDSLLTSTGIIIHVGTMGAAIKYMIENNWEANPGVHDKDIFCNNDSLIGNVHPCDIHTIVPIFWEGELIGWVGGVTHVIDTGAVGPGSMATGQVQRFGDGYSITCRKVGANDTLFRDWLHESQRMVRTTRYWMLDERTRIAGCHMIRKLVEEVVAEEGIEAYWKFAYEAVEHGRLGLQARIKAMTIPGTYRQVGFVDVPYAHEDVRVPSDFAKLDTIMHAPCEMTIRRDGTWRLDFEGSSRWGWHTYNAHQVSFTSGIWVMMTQTLIPSEMINDGAAYGTEFRLPKGTWMNPDDRRVAFSYSWHFLVSAWTALWRGLSRSYFGRGYLEEVNAGNANTSNWLQGGGFNQYDEIHAVNSFECAANGTGATAVQDGLSHAAAIWNPEGDMGDMEIWELAEPLVYLGRQIKASSGGSGKYRGGCGFESLRMVWNAKDWTMFFMGNGHISSDWGLMGGYPAASGYRFAAHKTNLKELIASGAEIPLGGDTDPENPTWDAMLPDAQIKRDKQAITTEEMFSDYDLYLNYMRGGPGFGDPLDREPQAVADDINGGYVLERFAGEVYGVVVRKGADGQYGVDEAGTAAARAQIRKDRLAKSVPVSEWMKGEREKILAKDAGTQVRQMFAASFKLGPRFEKDFRTFWSLPDSWTLPEEEIGVPTYGSRYSMDISELPDVHTVQFVEE
notes: acetone carboxylase α subunit (75 kDa), gene acxB (Xaut_3510), X. autotrophicus Py2; amplified from the start to the stop codon; Subunit of the (αβγ)2 heterohexamer; The initial structure was solved from selenomethionine-labelled protein; also called AC α; Xaut_3510; source: E. coli BL21(DE3), co-expressed with the β and γ subunits, purified (His-NTA, desalting)
Question: Does B1 bind [4]?
Answer: Result: binds
